Data from patent publication US20250179126A1, “A NOVEL PEPTIDE FROM A PHOTOSYNTHETIC BACERIUM DIRECTLY TARGETS MITOCHONDRIA TO TRIGGER APOPTOSIS IN ADVANCED PROSTATE CANCER CELLS” (priority 2022, published 2025).
“Also recorded” adds a separate entry of the source.

Key:
[1] = test system: LNCaP prostate cancer cells; assay: MTT cell viability assay, LNCaP prostate cancer cells; type: cell-based, human
Experimental: (§1) Cell lines and culture: Human cancer and noncancer (immortalized and nonimmortalized) cell lines were obtained from the American Type Culture Collection [prostate cancer (PC3, DU145 and LNCaP), normal prostate (CRL11611), breast cancer (MCF-7), ovarian cancer (SK-OV3 adenocarcinoma), lung cancer (A549)]. MDD2 breast cancer cells (p53 dominant-negative) were provided courtesy of Dr Andrei V. Gudkov, Roswell Park Cancer Institute. 20 All cell lines were cultured in MEM-E (Invitrogen) supplemented with 10% heat-inactivated fetal bovine serum (Atlanta Biological, Inc.), 100 units/mL penicillin, and 100 μg/mL streptomycin at 37° C. in 5% CO2.

[2] = test system: DU145 prostate cancer cells; assay: MTT cell viability assay, DU145 prostate cancer cells; type: cell-based, human
Source text: (§2) Cell viability was detected by MTT assays, and the control (PBS-treated) cells were considered 100% viable. Mean±SE (N=3). *P<0.05, **P<0.01, ***P<0.001.
as §1

[3] = biological target: T1, mitochondrial ATP synthase gamma subunit (ATP5C) (Homo sapiens, UniProt P36542); assay: Pull-down assay with biotin-labeled peptides and protein identification; type: binding; settings: mitochondrial fraction of PC3 cells, biotin-labeled peptide, 16 hr at 4° C.
T1 construct: endogenous in cells; host or cells: PC3 human prostate cancer cells, mitochondrial fraction (detergent extract)
T1 sequence (P36542 26-298): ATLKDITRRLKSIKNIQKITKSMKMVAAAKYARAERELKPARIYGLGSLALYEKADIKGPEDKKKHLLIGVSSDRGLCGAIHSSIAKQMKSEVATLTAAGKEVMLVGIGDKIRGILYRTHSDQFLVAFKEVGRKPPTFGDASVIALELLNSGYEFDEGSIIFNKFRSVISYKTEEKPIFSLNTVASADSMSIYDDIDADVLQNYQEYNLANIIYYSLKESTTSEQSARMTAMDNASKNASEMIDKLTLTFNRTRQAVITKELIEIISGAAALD
Source text: 8A, TEM image of PC3 cells. Representative TEM micrograph of aurB-treated cells depicting the intraritochondrial localization of aurB-GNRs (arrowheads) and mitochondria](Mt) swelling. Scale bar: 600 nm. Mt: mitochondria. […] Coomassie-stained SDS-PAGE gels are shown (8B). The protein band at ˜35 kDa (arrowhead) was identified as ATP5C using mass spectrometry analysis. The identified fragments are indicated in green underlined sequence (SEQ ID NO: 4)(8C).
Pull-down assay and protein identification: PC3 cells were washed twice with PBS, and the mitochondrial fraction was prepared with a Qproteome mitochondria isolation kit (Qiagen). […] The peptides were then preincubated with streptavidin-agarose beads for 4 hr. After washing, the beads were boiled, and the released proteins were subjected to SDS-PAGE analysis. A protein band of ˜35 kDa was subjected to microcapillary LC/MS/MS for protein identification (Harvard Medical School, Taplin Mass Spectrometry Facility). For IB, proteins were transferred to nitrocellulose membranes. After blocking with 5% BSA in TBST, the membranes were incubated with anti-ATP5C antibody at 1:25,000 in 5% BSA/TBST (Abcam) for 16 hr at 4° C. The secondary antibody was applied (anti-goat IgG-HRP; Santa Cruz Biotechnology). The signal was detected using enhanced chemiluminescence (ECL).

[4] = test system: SKOV-3 ovarian cancer cells; assay: MTT cell viability assay, SKOV-3 ovarian cancer cells; type: cell-based, human; settings: 24 hr
Source text: as §2, §1
Cytotoxicity assay: The MTT assay was performed as we previously described (Cha et al., Cancer Research 2020, 80: 1615-1623).

Substance: LVN GGD DVA AAV NTA AQN NAD ALF VPPP (LVNGGDDVAAAVNTAAQNNADALFVPPP) [aurB]
- cytotoxic effect (MTT cell viability) ([1]; LNCaP (p53 wild-type, AR+), 24-72 hr, paclitaxel 1 nM): significantly induced dose-dependent cytotoxic effects; also recorded: more sensitive than the normal prostate cell line
- inhibition rate ([1]; LNCaP, 100 μM for 72 hr): ~50%
- cytotoxic effect (MTT cell viability) ([2]; DU145 (p53-mutant, AR−), 24-72 hr, paclitaxel 1 nM): significantly induced dose-dependent cytotoxic effects; also recorded: more sensitive than the normal prostate cell line
- inhibition rate ([2]; DU145, 100 μM for 72 hr): ~50%
- anti-proliferative effect (MTT cell viability) ([2]; DU145, 5-100 μM, 24 hr): clear dose-dependent effects
- binding to ATP5C (pull-down of ~35 kDa protein, IB) [3]: physically bound to ATP5C; also recorded: pulled down an endogenous protein
- effect on p53-inactive cancer cells (MTT) ([4]; SKOV3 (p53-null), 0.1-100 μM): dose-dependent
- anti-proliferative effect (MTT cell viability) ([4]; SKOV-3, 5-100 μM): clear dose-dependent effects
